The source of these data is publication PMC8805037, “Ready access to 7,8-dihydroindolo[2,3-d][1]benzazepine-6(5H)-one scaffold and analogues via early-stage Fischer ring-closure reaction” (Beilstein Journal of Organic Chemistry, 2022).

Usually IC50 stands for the concentration that gives 50% inhibition. A high value points to weaker potency.

For this assay, the target named is proto-oncogene tyrosine-protein kinase Src (Homo sapiens, UniProt P12931). Kind of assay: IC50 reported as preliminary result; assay not described in the text shown. Type of assay: biochemical.
Chain of proto-oncogene tyrosine-protein kinase Src (P12931 2-536): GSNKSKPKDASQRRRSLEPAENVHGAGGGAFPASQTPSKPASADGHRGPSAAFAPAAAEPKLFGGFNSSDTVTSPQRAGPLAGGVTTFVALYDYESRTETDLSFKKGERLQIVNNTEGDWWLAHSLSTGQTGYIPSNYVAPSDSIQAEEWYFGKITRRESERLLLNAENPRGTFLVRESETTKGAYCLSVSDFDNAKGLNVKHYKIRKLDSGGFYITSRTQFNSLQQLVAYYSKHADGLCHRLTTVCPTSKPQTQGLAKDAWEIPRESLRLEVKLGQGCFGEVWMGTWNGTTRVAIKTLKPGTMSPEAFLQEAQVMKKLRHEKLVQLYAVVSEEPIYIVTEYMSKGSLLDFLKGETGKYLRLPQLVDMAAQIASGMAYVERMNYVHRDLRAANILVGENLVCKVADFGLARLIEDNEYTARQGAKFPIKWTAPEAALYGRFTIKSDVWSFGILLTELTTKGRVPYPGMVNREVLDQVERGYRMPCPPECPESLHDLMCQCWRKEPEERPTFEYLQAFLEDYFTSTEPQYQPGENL

As to `O=C1Cc2[nH]c3ccccc3c2-c2ccccc2N1` [C, 7,8-dihydroindolo[2,3-d][1]benzazepin-6(5H)-one], the IC50 came out at 260 nM.
